How the values were obtained:
[1] = test system: JNK phosphorylation; assay: JNK Activation Assay (western blot), Panc-1; format: cell-based, human; details: at 10 μM, Panc-1 pancreatic cancer cell line; starred symbols = activation
Method in brief: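 KRas G12C Panc-1 cells treated 6 h at 37 °C with compound at 10 μM (0.3% DMSO), or serial dilutions for IC50. In Method 1 cells were serum-starved overnight (0.5% FBS) then stimulated with 1.5 ng/ml EGF for 15 min; Method 2 used 10% FBS without stimulation. Phospho-JNK (Thr183/Tyr185) measured by western blot.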

[2] = test system: MAPK p38 phosphorylation; assay: MAPK p38 Activation Assay (western blot), Panc-1; format: cell-based, human; details: at 10 μM, Panc-1 pancreatic cancer cell line; starred symbols = activation
Method in brief: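 Panc-1 cells (KRas G12D) were treated with compound for 6 h at 37 °C, at 10 μM or as serial dilutions for IC50, with 0.3% DMSO. Method 1 used overnight serum-starved cells (0.5% FBS) stimulated with 1.5 ng/ml EGF for 15 min; Method 2 used unstimulated cells in 10% FBS. Phospho-p38 (Thr180/Tyr182) was detected by western blot.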

[3] = molecular target: T1, Rheb (Homo sapiens, UniProt Q15382); assay: Rheb GTP Binding Domain Inhibition Assay; details: read-out: Rheb: % inh.
T1 construct: made in house
Experimental: Protocol for Cdc42 and Rheb GTP Binding Domain Inhibition Assay
The following method was developed as specific assay for cdc42 and Rheb proteins.
• 25 mM Tris-HCl, pH 7.4 • 27 mM KCl • 137 mM NaCl • 1 mM MgCl2 • 1 mM DTT Buffer-II: • 50 mM Tris-HCl, pH 7.0 • 1 mM MgCl2 • 1 mM DTT
The small GTPases proteins cdc42 and Rheb were expressed as His-tagged proteins. For the assay, the cdc42 and Rheb purified small GTPases proteins were diluted in Buffer-I or Buffer-II to a final concentration of 10-30 μg/mL. 200 μL of each diluted protein was added to a nickel-coated 96-well plate and incubated overnight at […]. Then the protein solution was discarded and 200 μL of Buffer-I or Buffer-II was added to each well in the presence of 1% DMSO. Compounds to be tested were added to the protein-coated wells at final concentration of 20 μM, and incubated for 3 hours at room temperature with and without 10-30 μg/mL of Sos added to the final hour of the incubation. When performing IC50 measurements a serial dilution of all tested concentrations was added. Then Cy3-GTP or Cy5-GTP was added to each well to a final concentration of 100 nM. The labeled GTP was incubated for 45 minutes at room temperature. Following GTP incubation, wells were washed 3× in Buffer-I or Buffer-II and 200 μL of Buffer-I or Buffer-II was added to each well. Following washes, the amount of bound labeled-GTP was measured using a SpectraMax M3 (Molecular Devices).

T1 sequence (Q15382 whole entry, the tested form may be a part): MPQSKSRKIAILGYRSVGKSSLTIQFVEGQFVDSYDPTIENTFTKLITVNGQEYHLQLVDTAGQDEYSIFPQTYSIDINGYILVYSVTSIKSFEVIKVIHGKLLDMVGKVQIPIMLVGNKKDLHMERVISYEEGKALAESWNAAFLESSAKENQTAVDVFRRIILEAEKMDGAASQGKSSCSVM

| Structure (SMILES) | % inh of JNK in Panc-1 [1] | % inh of MAPK p38 in Panc-1 [2] | inhibition at 20 µM [3] |
| --- | --- | --- | --- |
| Cc1c(-c2ccn(C(C)C)n2)cn2nc(-c3nccn3C)nc(Nc3ncco3)c12 [Compound 60, N-(6-(1-Isopropyl-1H-pyrazol-3-yl)-5-methyl-2-(1-methyl-1H-imidazol-2-yl)pyrrolo[2,1-f][1,2,4]triazin-4-yl)oxazol-2-amine] | H* (H* ≥ 100% activation) | H* (H* ≥ 100% activation) | 26 to 49% |
| COc1cccc(-c2cn3nc(-c4nccn4C)nc(N[C@H]4C[C@H](OC)C4)c3c2-c2ccn(C)n2)c1F [Compound 47, 6-(2-Fluoro-3-methoxyphenyl)-N-((1r,3r)-3-methoxycyclobutyl)-2-(1-methyl-1H-imidazol-2-yl)-5-(1-methyl-1H-pyrazol-3-yl)pyrrolo[2,1-f][1,2,4]triazin-4-amine] | H* (H* ≥ 100% activation) | F (F = 31-74% inhibition) | 1 to 25% |
| COc1cc(Nc2nc(-c3nccn3C)nn3cc(-c4ccn(C(C)C)n4)c(C)c23)n[nH]1 [Compound 51, 6-(1-Isopropyl-1H-pyrazol-3-yl)-N-(5-methoxy-1H-pyrazol-3-yl)-5-methyl-2-(1-methyl-1H-imidazol-2-yl)pyrrolo[2,1-f][1,2,4]triazin-4-amine] | H* (H* ≥ 100% activation) | H* (H* ≥ 100% activation) | 50 to 75% |
| Cc1c(-c2ccn(C(C)C)n2)cn2nc(-c3nccn3C)nc(Nc3nc(C4CC4)no3)c12 [Compound 70, 3-Cyclopropyl-N-(6-(1-isopropyl-1H-pyrazol-3-yl)-5-methyl-2-(1-methyl-1H-imidazol-2-yl)pyrrolo[2,1-f][1,2,4]triazin-4-yl)-1,2,4-oxadiazol-5-amine] | H* (H* ≥ 100% activation) | H* (H* ≥ 100% activation) | 1 to 25% |
| Cc1c(-c2ccn(C(C)C)n2)cn2nc(-c3nccn3C)nc(Nc3ccccn3)c12 [Compound 57, 6-(1-Isopropyl-1H-pyrazol-3-yl)-5-methyl-2-(1-methyl-1H-imidazol-2-yl)-N-(pyridin-2-yl)pyrrolo[2,1-f][1,2,4]triazin-4-amine] | H* (H* ≥ 100% activation) | E* (E* = 1-30% activation) | 76 to 100% |
| Cc1c(-c2ccn(C(C)C)n2)cn2nc(-c3nccn3C)nc(Nc3nnco3)c12 [Compound 59, N-(6-(1-Isopropyl-1H-pyrazol-3-yl)-5-methyl-2-(1-methyl-1H-imidazol-2-yl)pyrrolo[2,1-f][1,2,4]triazin-4-yl)-1,3,4-oxadiazol-2-amine] | H* (H* ≥ 100% activation) | H* (H* ≥ 100% activation) | 50 to 75% |
| COc1cc(Nc2nc(-c3nccn3C)nn3cc(-c4ccn(C)n4)c(C)c23)ncn1 [Compound 63, N-(6-Methoxypyrimidin-4-yl)-5-methyl-2-(1-methyl-1H-imidazol-2-yl)-6-(1-methyl-1H-pyrazol-3-yl)pyrrolo[2,1-f][1,2,4]triazin-4-amine] | H* (H* ≥ 100% activation) | H* (H* ≥ 100% activation) | 50 to 75% |
| Cc1c(-c2ccn(C(C)C)n2)cn2nc(-c3nccn3C)nc(Nc3ncccn3)c12 [Compound 54, 6-(1-Isopropyl-1H-pyrazol-3-yl)-5-methyl-2-(1-methyl-1H-imidazol-2-yl)-N-(pyrimidin-2-yl)pyrrolo[2,1-f][1,2,4]triazin-4-amine] | H* (H* ≥ 100% activation) | H* (H* ≥ 100% activation) | 76 to 100% |
| COc1cccc(-c2cn3nc(-c4nccn4C)nc(N[C@@H]4CC[C@@H](OC)C4)c3c2-c2ccccc2)c1F (racemic) [Compound 43, rac 6-(2-Fluoro-3-methoxyphenyl)-N-((1R,3R)-3-methoxycyclopentyl)-2-(1-methyl-1H-imidazol-2-yl)-5-phenylpyrrolo[2,1-f][1,2,4]triazin-4-amine] | H* (H* ≥ 100% activation) | H* (H* ≥ 100% activation) | 26 to 49% |
| COc1cc(Nc2nc(-c3nccn3C)nn3cc(-c4cccc(OC)n4)c(C)c23)ncn1 [Compound 65, 6-(6-Methoxypyridin-2-yl)-N-(6-methoxypyrimidin-4-yl)-5-methyl-2-(1-methyl-1H-imidazol-2-yl)pyrrolo[2,1-f][1,2,4]triazin-4-amine] | H* (H* ≥ 100% activation) | H* (H* ≥ 100% activation) | 0% |
| COc1cccc(-c2cn3nc(-c4nccn4C)nc(N[C@@H]4CC[C@@H](OC)C4)c3c2-c2ccccn2)c1F (racemic) [Compound 46, rac 6-(2-Fluoro-3-methoxyphenyl)-N-((1R,3R)-3-methoxycyclopentyl)-2-(1-methyl-1H-imidazol-2-yl)-5-(pyridin-2-yl)pyrrolo[2,1-f][1,2,4]triazin-4-amine] | H* (H* ≥ 100% activation) | H (H = 100% inhibition) | 50 to 75% |
| Cc1c(-c2ccn(C(C)C)n2)cn2nc(-c3nccn3C)nc(Nc3cnccn3)c12 [Compound 62, 6-(1-Isopropyl-1H-pyrazol-3-yl)-5-methyl-2-(1-methyl-1H-imidazol-2-yl)-N-(pyrazin-2-yl)pyrrolo[2,1-f][1,2,4]triazin-4-amine] | H* (H* ≥ 100% activation) | H* (H* ≥ 100% activation) | 0% |
| Cc1c(-c2ccn(C(C)C)n2)cn2nc(-c3nccn3C)nc(Nc3ccncn3)c12 [Compound 55, 6-(1-Isopropyl-1H-pyrazol-3-yl)-5-methyl-2-(1-methyl-1H-imidazol-2-yl)-N-(pyrimidin-4-yl)pyrrolo[2,1-f][1,2,4]triazin-4-amine] | H* (H* ≥ 100% activation) | H* (H* ≥ 100% activation) | 76 to 100% |
| COc1ccc(-c2cn3nc(-c4nccn4C)nc(Nc4cc(OC)ncn4)c3c2C)cn1 [Compound 66, 6-(6-Methoxypyridin-3-yl)-N-(6-methoxypyrimidin-4-yl)-5-methyl-2-(1-methyl-1H-imidazol-2-yl)pyrrolo[2,1-f][1,2,4]triazin-4-amine] | H* (H* ≥ 100% activation) | H* (H* ≥ 100% activation) | 50 to 75% |
| COc1cccc(-c2cn3nc(-c4nccn4C)nc(N[C@H]4C[C@H](OC)C4)c3c2-c2ccccc2)c1Cl [Compound 32, 6-(2-Chloro-3-methoxyphenyl)-N-((1r,3r)-3-methoxycyclobutyl)-2-(1-methyl-1H-imidazol-2-yl)-5-phenylpyrrolo[2,1-f][1,2,4]triazin-4-amine] | H (H = 100% inhibition) | H (H = 100% inhibition) | 26 to 49% |
| COc1cncnc1Nc1nc(-c2nccn2C)nn2cc(-c3ccn(C(C)C)n3)c(C)c12 [Compound 73, 6-(1-Isopropyl-1H-pyrazol-3-yl)-N-(5-methoxypyrimidin-4-yl)-5-methyl-2-(1-methyl-1H-imidazol-2-yl)pyrrolo[2,1-f][1,2,4]triazin-4-amine] | – | – | 50 to 75% |
| Cc1c(-c2ccn(C(C)C)n2)cn2nc(-c3nccn3C)nc(Nc3cc(C4CC4)n[nH]3)c12 [Compound 68, N-(3-Cyclopropyl-1H-pyrazol-5-yl)-6-(1-isopropyl-1H-pyrazol-3-yl)-5-methyl-2-(1-methyl-1H-imidazol-2-yl)pyrrolo[2,1-f][1,2,4]triazin-4-amine] | – | – | 76 to 100% |
